For data set [1], the target named is T1, human membrane folate-binding protein (mFBP) (Homo sapiens, UniProt P15328).
T1 construct: mFBP prepared from cultured KB cells (human nasopharyngeal carcinoma cells); endogenous in cells
The data set can be described thus: competitive binding assay against 3H-folic acid with mFBP prepared from KB cells. From the text: The dissociation constant (Kd) of the preferred inhibitors of the present invention for human membrane folate-binding protein (mFBP) can be determined in a competitive binding assay using mFBP prepared from cultured KB cells (human nasopharyngeal carcinoma cells) as disclosed in U.S. Pat. No. 5,646,141, the disclosures of which is hereby incorporated by reference in its entirety.
Human membrane folate binding protein can be obtained from KB cells by methods well known in the art. KB cells are washed, sonicated for cell lysis and centrifuged to form pelleted cells. The pellet can then be stripped of endogenous bound folate by resuspension in acidic buffer (KH2PO4—KOH and 2-mercaptoethanol) and centrifuged again. The pellet is then resuspended and the protein content quantitated using the Bradford method with bovine serum albumin (BSA) as standard.
Disassociation constants are determined by allowing, the test inhibitor to compete against ^3H-folic acid for binding to mFBP. Reaction mixtures are designed to generally contain mFBP, ^3H-folic acid, and various concentrations of the subject test inhibitor in acidic buffer (KH2PO4—KOH and 2-mercaptoethanol). The competition reaction is typically conducted at 25°. Because of the slow nature of release of bound ^3H-folic acid, the test inhibitor may be prebound prior to addition of bound ^3H-folic acid, after which the reaction should be allowed to equilibriate. The full reaction mixtures then should be drawn through nitrocellulose filters to isolate the cell membranes with bound ^3H-folic acid. The trapped mFBP are then washed and measured by scintillation counting. The data can then be nonlinearly fitted as described above in determining Ki. The mFBP Kd for ^3H-folic acid, used for calculating the competitor Kd, can be obtained by directly titrating mFBP with ^3H-folate. The mFBP Kd can then be used to calculate the competitor Kd by nonlinear fitting of the data to an equation for tight-binding Kc. Table 1 below provides the Kd values of several GARFT inhibitors using the assay described above.

In data set [2] the test system is MTAP-competent NCI-H460 cells. In words: MTT growth inhibition by Compound 1 or 3 with and without MTA. It counts as cell-based, human. Conditions: FIG. 7. The procedure: Cells were plated in columns 2-12 of a 96-well microtiter plate, with column 2 designated as the vehicle control. The same volume of medium was added to column 1. Column 1 was designated as the media control. After a 4-hour incubation, the cells were treated with Compound 7, with or without a non-growth inhibitory concentration of MTA, in quadruplicate wells. […] MTT (4,5-dimethylthiazol-2-yl)-2,5-diphenyl tetrazolium bromide; Sigma, St. Louis, Mo.) was added to a final concentration of 0.25-1 mg/ml in each well, and the plates were incubated for 4 hours. The liquid was removed from each well. DMSO was added to each well, then the plates were vortexed slowly in the dark for 7-20 minutes. The formazin product was quantified spectrophotometrically at […] on a Molecular Devices Vmax™ kinetic microplate reader.

Data set [3] addresses T2, Human MTAP (Homo sapiens, UniProt Q13126).
T2 construct: six-histidine tag (His6) (N); made in house; host or cells: E. coli BL21 DE3
T2 sequence (Q13126 1-283): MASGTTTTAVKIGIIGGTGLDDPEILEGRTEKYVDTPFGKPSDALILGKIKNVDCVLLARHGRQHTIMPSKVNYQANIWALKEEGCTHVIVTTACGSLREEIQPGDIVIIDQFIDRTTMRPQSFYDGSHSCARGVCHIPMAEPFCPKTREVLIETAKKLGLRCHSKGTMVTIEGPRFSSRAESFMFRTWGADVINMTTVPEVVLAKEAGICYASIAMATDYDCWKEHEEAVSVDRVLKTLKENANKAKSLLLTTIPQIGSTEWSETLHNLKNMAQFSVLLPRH
In words: MTAP substrate assay, coupled spectrophotometric (adenine, xanthine oxidase). Conditions: 2 nM MTAP; for activity at 50 µM: 10 min, read-out: MT-A—50: initial velocity as a percentage of the initial velocity with MTA as substrate; for MT-A—10: initial velocity as a percentage of the initial velocity with MTA as substrate: compound 10 uM, relative to MTA at 10 uM. It counts as biochemical. In short, it runs like this:
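Detection was xanthine oxidase-coupled (0.8 units/ml), reading adenine-derived absorbance at 305 nm over 10 min in potassium phosphate/DTT buffer at 37° C, with N-His6 enzyme purified from E. coli.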

The target of data set [4] is T3, AICARFT (Homo sapiens, UniProt P31939).
T3 construct: the catalytic domain of the human enzyme and its substrate (i.e., GARFT and GAR, or AICARFT and AICAR)
T3 sequence (P31939 199-592 limits assumed): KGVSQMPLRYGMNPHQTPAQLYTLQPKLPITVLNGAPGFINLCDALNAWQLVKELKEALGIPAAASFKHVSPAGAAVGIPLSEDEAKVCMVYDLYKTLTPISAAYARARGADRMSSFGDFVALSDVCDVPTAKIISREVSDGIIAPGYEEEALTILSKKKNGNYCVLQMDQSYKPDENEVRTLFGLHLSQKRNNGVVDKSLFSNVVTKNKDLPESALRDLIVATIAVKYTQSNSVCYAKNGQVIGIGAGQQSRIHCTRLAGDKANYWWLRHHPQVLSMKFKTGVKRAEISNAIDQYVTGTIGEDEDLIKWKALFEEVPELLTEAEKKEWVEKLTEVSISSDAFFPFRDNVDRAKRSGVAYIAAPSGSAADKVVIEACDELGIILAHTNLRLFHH
Conditions: cited from earlier work.

Data set [5] has as its system MTAP-competent NCI-H460 cells. The data set can be described thus: colony formation cytotoxicity with varying duration of MTA exposure. Format: cell-based, human. The note with it: MTA for at least 48 hours, at least 1 day after Compound 7 exposure, FIG. 8. The procedure:
(§1) Mid-log-phase cells were trypsinized and placed in 60 mm tissue culture dishes at 200 or 250 cells per dish. Cells from each cell line were left to attach for 4 hours and then were treated with Compound 7, with or without MTA or dcSAMe, in 5-fold serial dilutions for 6 or 24 hours. For data shown in FIGS. 5a and 5b, cells were exposed to drug(s) for 6 hours only. For data shown in FIG. 6, cells were exposed to Compound 7 for 24 hours and to MTA continuously for the duration of colony growth (i.e. 24 hours and thereafter). Cells were next washed with PBS, and then fixed and stained with 1% w/v crystal violet in 25% methanol (Sigma, St. Louis, Mo.). After washing the dishes 2-3 times. with deionized water, the colonies were counted. Triplicate dishes were used for each drug concentration.
Cytoxicity data for combination therapy of Compound 7 with MTA was collected using MTAP-competent […] cells. NCI-H460 cells were cultured, incubated and stained as described in Example 3(B) above, but with an incubation time of up to eight days.

Data set [6] deals with human pancreatic BxPC-3 tumor. The data set can be described thus: antitumor activity in MTAP-deficient xenograft model. It counts as in vivo, mice. Conditions: 50 mg/kg MTA bid x8 alone. From the text: To evaluate the in vivo effect of combination therapy on known human MTAP-deficient tumors, an MTAP-deficient cell line was introduced to mice to produce xenograft MTAP-deficient tumors. 108 BALB/c/nu/nu female mice bearing subcutaneous tumor fragments produced from the MTAP-deficent BxPC-3 cell line were housed 3 per cage with free access to food and water. Mice were fed a folate-deficient chow (#Td84052, Harlan Teklad, Madison, Wis.) beginning 14 days prior to initiation of drug treatment and continuing throughout the study. After randomization by tumor volume into 8 treatment groups and assigning the remaining 12 mice to group 7, beginning on the twenty-first day after tumor implant mice were dosed with Compound 7 daily for 4 days, and with MTA or vehicle twice-a-day for 8 days, in the amounts indicated in Table 7 below. The vehicle for both compounds was 0.75% sodium bicarbonate in water (7.5% NaHCO3 solution (Cellgro #25-035-4, Mediatech, Herndon, Va.) diluted 1:10 in sterile water for injection (Butler, Columbus, Ohio)) under pH adjusted to 7.0-7.4. Solutions were sterilized by filtration through 0.22 micron polycarboniate filters (Cameo 25GAS, Micron Separations Inc., Westboro, Mass.). Tumor volumes and animal weight loss, which is an indicator of toxicity, were recorded daily for 14 days at the same time of day, then on a Monday, Wednesday, Friday schedule for the remainder of the study.

The test system of data set [7] is BxPC-3 cells transfected with the MTAP gene. In words: colony formation cytotoxicity, 6 h drug exposure. Format: cell-based, human. The note with it: 1.5 μM Compound 7 with 50 μM anti-toxicity agent, FIG. 5a. How it is done:
(§2) Cytoxicity data was collected using BxPC-3, PANC-1 and HT-1080 cells which were cultured in Iscove's medium supplemented with 10% dialyzed, horse serum, 5% nonessential amino acids and 5% sodium pyruvate.
as §1

Data set [8] deals with MTAP-deficient BxPC-3. In words: colony formation cytotoxicity, 6 h drug exposure. It counts as cell-based, human. Conditions: Compound 7 with 50 μM anti-toxicity agent, FIG. 5b. How it is done:
as §2, §1

Setting [9] is: compound 50 uM, relative to MTA at 50 uM.

T1 sequence (P15328 25-234): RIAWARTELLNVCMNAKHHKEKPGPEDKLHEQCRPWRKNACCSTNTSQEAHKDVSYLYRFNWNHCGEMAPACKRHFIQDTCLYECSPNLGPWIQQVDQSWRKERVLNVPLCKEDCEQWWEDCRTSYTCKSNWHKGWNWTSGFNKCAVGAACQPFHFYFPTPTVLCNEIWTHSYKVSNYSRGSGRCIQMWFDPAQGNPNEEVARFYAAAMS

On to `Cc1cc(C(=O)N[C@@H](CCC(=O)O)C(=O)O)sc1CC[C@H]1CNc2nc(N)[nH]c(=O)c2S1` (single isomer, unassigned) [Compound 3], for which the dissociation constant Kd (as a rule, a measure of binding affinity in units of concentration) in data set [1] came to 0.0042 nM. The “factor by which MTA reduced the growth inhibitory activity” value in data set [2] is reported as “greater than 5”.

Consider `Nc1ncnc2c1ncn2[C@@H]1O[C@H](CSc2nc3cc(Cl)ccc3o2)[C@@H](O)[C@H]1O` [2(G)(163), (2R, 3R, 4S, 5S)-2-(6-amino-9H-purin-9-yl)-5-{[(5-chloro-1,3-benz-oxazol-2-yl)thio]methyl}-tetrahydrofuran-3,4-diol], for which, in data set [3] (setting [9]), the activity at 50 µM came out at 26.5%. Also, the “MT-A—10: initial velocity as a percentage of the initial velocity with MTA as substrate” value in data set [3] is recorded as 12%.

Consider `COC(=O)c1cnc(SC[C@H]2O[C@@H](n3cnc4c(N)ncnc43)[C@H](O)[C@@H]2O)n1C` [2(G)(164), Methyl 2-({[(2S, 3S, 4R, 5R)-5-(6-amino-9H-purin-9-yl)-3,4-dihydroxy-tetrahydrofuran-2-yl]methyl}thio)-1-methyl-1H-imidazole-5-carboxylate], for which the activity at 50 µM in data set [3] (setting [9]) turned out to be 29%. Further, the “MT-A—10: initial velocity as a percentage of the initial velocity with MTA as substrate” value in data set [3] came out at 13.5%.

Consider `CC(C)(C)c1cc(O)nc(SC[C@H]2O[C@@H](n3cnc4c(N)ncnc43)[C@H](O)[C@@H]2O)n1` [2(G)(165), (2R, 3R, 4S, 5S)-2-(6-amino-9H-purin-9-yl)-5-{[(4-tert-butyl-6-hydroxypyrimidin-2-yl)thio]methyl}tetrahydro-furan-3,4-diol], for which, in data set [3] (setting [9]), the activity at 50 µM was 33.5%. Also, the “MT-A—10: initial velocity as a percentage of the initial velocity with MTA as substrate” value in data set [3] is listed as 25%.

As to `Nc1nc(N)c(SCCc2ccc(C(=O)N[C@@H](CCC(=O)O)C(=O)O)s2)c(=O)[nH]1` [Compound 1, N-[5-(2[(2,6-diamino-4(3H)-oxopyrimidin5yl)thio]ethyl)thieno-2-yl]-L-glutamic acid], the “Ki (specific inhibitor of AICARFT)” value in data set [4] is listed as “micromolar”. Further, the “factor by which MTA reduced the growth inhibitory activity” value in data set [2] is given as 3.

In data set [1], `Cc1cc(C(=O)N[C@@H](CCC(=O)O)C(=O)O)sc1CCCSc1c(N)nc(N)[nH]c1=O` [Compound 2] displayed a dissociation constant Kd of 136 nM.

Molecule `Cc1cc(C(=O)N[C@@H](CCC(=O)O)C(=O)O)sc1CC[C@@H]1CNc2nc(N)[nH]c(=O)c2S1` [Compound 4, 4-[2-(2-Amino-4-oxo-4,6,7,8-tetraydro-3H-pyrimido[5,4-b][1,4]thiazin-6-yl)-(R)-ethyl]-3-methyl-2-thienoyl-5-amino-L-glutamic acid] registered a Kd in data set [1] of 1 nM.

As for `Cc1cc(C(=O)N[C@@H](CCC(=O)O)C(=O)O)sc1CC[C@H]1CNc2nc(N)[nH]c(=O)c2S1` [Compound 5, 4-[2-(2-Amino-4-oxo-4,6,7,8-tetrahydro-3H-pyrimido[5,4-b][1,4]thiazin-6-yl)-(S)-ethyl]-3-methyl-2-thienoyl-5-amino-L-glutamic acid], the Kd in data set [1] is 0.71 nM.

Turning to `CSC[C@H]1O[C@@H](n2cnc3c(N)ncnc32)[C@H](O)[C@@H]1O` [MTA, methylthioadenosine], the “protection from Compound 7-induced cytotoxicity” value in data set [5] is “fully protected cells from Compound 7-induced cytotoxicity”. Further, in data set [6], the “Time to 1000 mm^3 (days) Mean” value turned out to be 22.6 days and the “Time to 1000 mm^3 (days) Median” value turned out to be 21.4 days. The cell survival in data set [7] is listed as 100%.

As to `C[S+](CCCN)CC1OC(n2cnc3c(N)ncnc32)C(O)C1O` (stereo not drawn) [dcSAMe, decarboxylated S-adenosylmethionine], the “effect on cell survival” value in data set [8] is on record as “increased cell survival by less than observed for the MTAP competent cells”. In data set [7], this molecule had a cell survival of 100%.

On to “(2R, 3R, 4S, 5S)-2-(6- amino-9H-purin-9-yl)-5- {[(5-chloro-1H- yl)thio]methyl}tetrahydro- furan-3,4-diol [2(G)(5)]”, for which, in data set [3], the “MT-A—10: initial velocity as a percentage of the initial velocity with MTA as substrate” value was determined as 5%. Also, the “MT-A—50: initial velocity as a percentage of the initial velocity with MTA as substrate” value in data set [3] (setting [9]) came out at 2%.

The values above are taken from patent US20040043959A1, “Combination therapies for treating methylthioadenosine phosphorylase deficient cells” (priority 2002, published 2004).
